# In ChEMBL document CHEMBL5233229, “Recent advances in the development of ubiquitin-specific-processing protease 7 (USP7) inhibitors” (Eur J Med Chem, 2020):
# How the values were obtained:
# [1] = molecular target: T1, Ubiquitin carboxyl-terminal hydrolase 8 (Homo sapiens, UniProt P40818); assay: Inhibition of USP8 (unknown origin)
# T1 sequence (P40818 whole entry): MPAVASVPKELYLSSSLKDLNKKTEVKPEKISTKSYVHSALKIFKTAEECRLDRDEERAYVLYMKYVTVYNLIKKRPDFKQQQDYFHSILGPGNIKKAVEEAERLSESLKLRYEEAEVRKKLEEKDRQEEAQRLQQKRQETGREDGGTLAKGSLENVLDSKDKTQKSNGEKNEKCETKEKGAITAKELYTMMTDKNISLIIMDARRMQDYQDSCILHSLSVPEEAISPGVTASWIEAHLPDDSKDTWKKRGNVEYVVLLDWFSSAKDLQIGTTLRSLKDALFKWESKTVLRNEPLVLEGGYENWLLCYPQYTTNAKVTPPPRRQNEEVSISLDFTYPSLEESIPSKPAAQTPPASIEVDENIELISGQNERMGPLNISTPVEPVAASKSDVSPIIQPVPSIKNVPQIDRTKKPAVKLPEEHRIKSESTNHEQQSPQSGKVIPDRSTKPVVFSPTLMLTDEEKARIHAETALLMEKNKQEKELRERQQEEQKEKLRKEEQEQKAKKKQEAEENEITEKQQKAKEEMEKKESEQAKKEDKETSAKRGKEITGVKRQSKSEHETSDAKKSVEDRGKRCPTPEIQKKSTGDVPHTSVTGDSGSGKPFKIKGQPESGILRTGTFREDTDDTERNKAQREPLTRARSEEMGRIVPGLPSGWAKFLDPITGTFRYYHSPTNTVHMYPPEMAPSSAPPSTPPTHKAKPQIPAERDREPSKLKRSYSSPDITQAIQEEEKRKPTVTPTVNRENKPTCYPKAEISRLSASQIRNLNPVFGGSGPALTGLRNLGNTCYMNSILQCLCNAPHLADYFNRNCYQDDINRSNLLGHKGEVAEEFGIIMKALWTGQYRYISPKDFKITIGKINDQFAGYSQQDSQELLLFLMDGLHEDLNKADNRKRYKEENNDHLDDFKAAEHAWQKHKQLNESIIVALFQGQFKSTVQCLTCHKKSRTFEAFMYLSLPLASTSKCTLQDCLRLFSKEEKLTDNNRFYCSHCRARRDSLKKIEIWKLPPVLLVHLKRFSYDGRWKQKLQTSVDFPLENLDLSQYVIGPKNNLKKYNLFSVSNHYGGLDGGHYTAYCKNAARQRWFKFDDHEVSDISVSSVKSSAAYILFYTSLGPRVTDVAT
# [2] = molecular target: T2, Ubiquitin carboxyl-terminal hydrolase 47 (Homo sapiens, UniProt Q96K76); assay: Inhibition of USP47 (unknown origin)
# T2 sequence (Q96K76 whole entry): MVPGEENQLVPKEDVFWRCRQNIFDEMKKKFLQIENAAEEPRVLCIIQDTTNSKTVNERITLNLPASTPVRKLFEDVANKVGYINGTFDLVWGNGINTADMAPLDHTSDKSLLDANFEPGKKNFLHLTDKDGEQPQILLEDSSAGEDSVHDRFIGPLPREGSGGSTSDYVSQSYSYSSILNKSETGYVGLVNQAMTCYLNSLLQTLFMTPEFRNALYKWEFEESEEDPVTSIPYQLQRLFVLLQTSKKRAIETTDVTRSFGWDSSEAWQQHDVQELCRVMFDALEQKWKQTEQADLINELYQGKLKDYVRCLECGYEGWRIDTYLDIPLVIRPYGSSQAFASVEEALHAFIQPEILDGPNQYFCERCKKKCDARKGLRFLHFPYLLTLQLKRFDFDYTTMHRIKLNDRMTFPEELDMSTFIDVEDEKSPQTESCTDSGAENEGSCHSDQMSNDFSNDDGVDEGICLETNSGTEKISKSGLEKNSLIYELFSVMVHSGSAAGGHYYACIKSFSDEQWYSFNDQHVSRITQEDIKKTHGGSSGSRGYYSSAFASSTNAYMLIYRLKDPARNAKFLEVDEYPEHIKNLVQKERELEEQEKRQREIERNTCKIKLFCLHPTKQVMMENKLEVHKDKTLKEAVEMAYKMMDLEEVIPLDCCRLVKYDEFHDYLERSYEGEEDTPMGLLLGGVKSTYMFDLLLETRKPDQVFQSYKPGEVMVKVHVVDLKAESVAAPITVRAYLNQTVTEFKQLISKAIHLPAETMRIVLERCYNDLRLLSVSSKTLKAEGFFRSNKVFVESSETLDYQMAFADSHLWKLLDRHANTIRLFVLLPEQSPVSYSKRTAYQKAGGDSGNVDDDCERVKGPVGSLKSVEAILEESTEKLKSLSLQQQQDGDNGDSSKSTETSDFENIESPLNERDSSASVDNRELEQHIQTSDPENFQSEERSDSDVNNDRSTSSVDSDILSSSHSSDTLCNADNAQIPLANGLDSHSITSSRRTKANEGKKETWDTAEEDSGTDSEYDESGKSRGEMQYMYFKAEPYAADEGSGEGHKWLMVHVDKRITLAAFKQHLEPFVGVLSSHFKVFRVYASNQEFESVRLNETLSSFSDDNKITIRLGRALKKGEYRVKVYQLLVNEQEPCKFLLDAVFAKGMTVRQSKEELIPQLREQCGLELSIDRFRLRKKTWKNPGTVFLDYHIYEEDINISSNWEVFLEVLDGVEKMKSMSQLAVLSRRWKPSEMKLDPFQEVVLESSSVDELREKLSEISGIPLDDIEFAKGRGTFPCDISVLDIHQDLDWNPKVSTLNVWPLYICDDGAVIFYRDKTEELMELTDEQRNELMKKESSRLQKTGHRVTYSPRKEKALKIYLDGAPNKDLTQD
# [3] = molecular target: T3, Ubiquitin carboxyl-terminal hydrolase 7 (Homo sapiens, UniProt Q93009); assay: Inhibition of human USP7 using Ub-AMC as substrate
# T3 sequence (Q93009 whole entry): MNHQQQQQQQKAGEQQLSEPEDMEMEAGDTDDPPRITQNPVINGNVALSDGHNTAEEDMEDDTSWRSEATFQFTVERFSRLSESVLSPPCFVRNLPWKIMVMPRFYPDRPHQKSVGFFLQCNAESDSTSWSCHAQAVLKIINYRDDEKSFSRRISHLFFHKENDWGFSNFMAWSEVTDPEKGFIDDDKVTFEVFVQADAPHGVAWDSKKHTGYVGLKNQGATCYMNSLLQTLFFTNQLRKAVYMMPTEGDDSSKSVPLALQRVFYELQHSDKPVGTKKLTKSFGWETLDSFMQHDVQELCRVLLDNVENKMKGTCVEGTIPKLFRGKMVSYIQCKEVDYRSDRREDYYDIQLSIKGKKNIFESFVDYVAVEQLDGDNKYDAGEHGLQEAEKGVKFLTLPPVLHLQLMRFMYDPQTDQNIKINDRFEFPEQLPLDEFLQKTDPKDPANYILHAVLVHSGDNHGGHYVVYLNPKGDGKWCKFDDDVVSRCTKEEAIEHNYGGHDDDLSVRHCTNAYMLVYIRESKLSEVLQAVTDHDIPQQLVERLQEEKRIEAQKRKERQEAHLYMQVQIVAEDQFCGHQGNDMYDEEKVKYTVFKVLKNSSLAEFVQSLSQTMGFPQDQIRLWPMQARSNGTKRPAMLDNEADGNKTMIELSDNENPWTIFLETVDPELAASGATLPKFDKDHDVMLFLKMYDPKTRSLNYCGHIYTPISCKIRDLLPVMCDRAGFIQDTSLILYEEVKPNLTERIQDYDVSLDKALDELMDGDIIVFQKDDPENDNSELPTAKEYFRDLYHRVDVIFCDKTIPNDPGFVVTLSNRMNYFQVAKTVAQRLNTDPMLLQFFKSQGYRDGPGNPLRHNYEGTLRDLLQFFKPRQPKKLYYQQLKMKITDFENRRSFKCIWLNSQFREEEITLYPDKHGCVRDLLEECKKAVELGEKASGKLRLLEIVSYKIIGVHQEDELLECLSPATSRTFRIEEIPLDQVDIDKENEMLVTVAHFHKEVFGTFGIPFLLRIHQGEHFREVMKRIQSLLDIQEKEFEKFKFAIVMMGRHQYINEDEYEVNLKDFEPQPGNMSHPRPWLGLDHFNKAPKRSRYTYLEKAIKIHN
# [4] = molecular target: T4, Ubiquitin carboxyl-terminal hydrolase 28 (Homo sapiens, UniProt Q96RU2); assay: Inhibition of USP28 (unknown origin) using […] as substrate by […] analysis
# T4 sequence (Q96RU2 whole entry): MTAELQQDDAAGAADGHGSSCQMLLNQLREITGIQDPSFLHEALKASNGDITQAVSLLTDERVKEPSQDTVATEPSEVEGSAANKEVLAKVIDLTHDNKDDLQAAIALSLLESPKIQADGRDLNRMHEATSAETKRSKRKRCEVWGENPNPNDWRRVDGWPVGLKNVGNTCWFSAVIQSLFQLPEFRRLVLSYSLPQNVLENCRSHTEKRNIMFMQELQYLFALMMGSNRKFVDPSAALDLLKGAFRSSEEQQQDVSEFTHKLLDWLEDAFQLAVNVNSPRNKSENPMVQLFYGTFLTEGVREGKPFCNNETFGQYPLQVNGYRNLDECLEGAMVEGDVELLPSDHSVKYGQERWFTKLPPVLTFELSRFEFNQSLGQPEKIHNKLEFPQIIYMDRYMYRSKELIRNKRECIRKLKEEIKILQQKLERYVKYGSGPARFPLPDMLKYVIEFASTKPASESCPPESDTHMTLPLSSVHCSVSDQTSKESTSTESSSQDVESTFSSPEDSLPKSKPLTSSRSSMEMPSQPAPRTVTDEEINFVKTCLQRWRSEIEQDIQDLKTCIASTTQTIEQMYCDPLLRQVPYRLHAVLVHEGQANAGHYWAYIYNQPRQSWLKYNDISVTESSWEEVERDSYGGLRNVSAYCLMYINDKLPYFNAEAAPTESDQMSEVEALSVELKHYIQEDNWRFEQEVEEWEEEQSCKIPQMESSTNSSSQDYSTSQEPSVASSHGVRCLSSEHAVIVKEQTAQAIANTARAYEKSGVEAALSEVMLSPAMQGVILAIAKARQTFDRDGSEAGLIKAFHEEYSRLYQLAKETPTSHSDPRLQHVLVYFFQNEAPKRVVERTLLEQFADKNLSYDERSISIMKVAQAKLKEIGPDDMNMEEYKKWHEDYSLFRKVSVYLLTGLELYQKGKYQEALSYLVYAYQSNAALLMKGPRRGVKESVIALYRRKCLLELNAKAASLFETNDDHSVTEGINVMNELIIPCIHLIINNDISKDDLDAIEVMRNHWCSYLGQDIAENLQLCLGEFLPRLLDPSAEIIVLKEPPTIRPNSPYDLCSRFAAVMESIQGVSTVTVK
# [5] = molecular target: T5, Ubiquitin carboxyl-terminal hydrolase 25 (Homo sapiens, UniProt Q9UHP3); assay: Inhibition of USP25 (unknown origin) using […] as substrate by […] analysis
# T5 sequence (Q9UHP3 whole entry): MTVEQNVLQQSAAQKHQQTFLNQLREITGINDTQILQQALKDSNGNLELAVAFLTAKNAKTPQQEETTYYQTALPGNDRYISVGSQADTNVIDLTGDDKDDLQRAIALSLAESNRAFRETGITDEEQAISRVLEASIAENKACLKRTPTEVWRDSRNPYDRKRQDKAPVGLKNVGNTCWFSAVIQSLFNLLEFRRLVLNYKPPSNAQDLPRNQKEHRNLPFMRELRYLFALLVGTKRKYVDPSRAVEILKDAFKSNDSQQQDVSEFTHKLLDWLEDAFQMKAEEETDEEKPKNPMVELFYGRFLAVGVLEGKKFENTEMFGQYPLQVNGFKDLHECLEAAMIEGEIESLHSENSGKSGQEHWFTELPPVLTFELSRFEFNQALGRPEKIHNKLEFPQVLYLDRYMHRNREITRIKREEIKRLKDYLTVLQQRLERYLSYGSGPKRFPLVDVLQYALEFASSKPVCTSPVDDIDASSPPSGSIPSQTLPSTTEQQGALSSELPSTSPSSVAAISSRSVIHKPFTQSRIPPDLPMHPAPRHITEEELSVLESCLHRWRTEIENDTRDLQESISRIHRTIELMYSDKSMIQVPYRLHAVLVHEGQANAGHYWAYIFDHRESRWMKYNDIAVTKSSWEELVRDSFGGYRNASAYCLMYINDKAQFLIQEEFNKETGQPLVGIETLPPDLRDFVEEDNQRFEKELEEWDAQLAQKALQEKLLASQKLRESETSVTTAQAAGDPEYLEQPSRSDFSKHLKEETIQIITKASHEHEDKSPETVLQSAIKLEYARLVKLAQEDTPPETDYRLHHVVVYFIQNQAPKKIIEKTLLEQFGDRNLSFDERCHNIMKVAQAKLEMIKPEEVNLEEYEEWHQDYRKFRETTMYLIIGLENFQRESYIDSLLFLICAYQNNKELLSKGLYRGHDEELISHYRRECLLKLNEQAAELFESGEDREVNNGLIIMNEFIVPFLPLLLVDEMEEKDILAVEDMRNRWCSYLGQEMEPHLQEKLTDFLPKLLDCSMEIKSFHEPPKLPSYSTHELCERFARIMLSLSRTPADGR
# [6] = molecular target: T6, Ubiquitin carboxyl-terminal hydrolase 2 (Homo sapiens) (UniProt O75604); assay: Inhibition of human USP2 (258 to 605 residues) catalytic domain assessed as inhibition constant by fluorescence based assay
# T6 sequence (whole entry): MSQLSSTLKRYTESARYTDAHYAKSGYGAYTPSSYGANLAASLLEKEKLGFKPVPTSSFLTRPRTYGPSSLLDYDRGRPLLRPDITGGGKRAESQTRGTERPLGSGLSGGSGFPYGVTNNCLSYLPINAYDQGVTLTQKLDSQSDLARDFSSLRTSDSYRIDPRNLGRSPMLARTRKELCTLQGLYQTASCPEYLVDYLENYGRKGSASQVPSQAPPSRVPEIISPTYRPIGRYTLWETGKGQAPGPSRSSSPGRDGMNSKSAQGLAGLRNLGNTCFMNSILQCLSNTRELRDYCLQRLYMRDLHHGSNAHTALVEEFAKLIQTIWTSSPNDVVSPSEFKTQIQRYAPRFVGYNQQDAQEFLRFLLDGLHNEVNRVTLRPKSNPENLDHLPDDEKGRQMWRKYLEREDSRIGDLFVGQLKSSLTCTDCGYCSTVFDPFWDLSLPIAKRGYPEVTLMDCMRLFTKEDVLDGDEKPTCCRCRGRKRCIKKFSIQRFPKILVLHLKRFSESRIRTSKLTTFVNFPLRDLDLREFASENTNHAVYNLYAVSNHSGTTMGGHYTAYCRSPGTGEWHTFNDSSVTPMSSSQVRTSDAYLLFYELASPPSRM
# [7] = molecular target: T3, Ubiquitin carboxyl-terminal hydrolase 7; assay: Inhibition of human USP7 using ubiquitin-Rho110 as substrate incubated for 1 hrs
# [8] = molecular target: T3, Ubiquitin carboxyl-terminal hydrolase 7; assay: Inhibition of human USP7 using ubiquitin-Rho as substrate incubated for 1 hrs
# [9] = molecular target: T7, Ubiquitin carboxyl-terminal hydrolase 2 (Homo sapiens, UniProt O75604); assay: Inhibition of human USP2 (258 to 605 residues) catalytic domain by fluorescence based assay
# T7 sequence (O75604 whole entry): T6 sequence (whole entry)
# [10] = molecular target: T3, Ubiquitin carboxyl-terminal hydrolase 7; assay: Inhibition of USP7 (unknown origin)
compound,measurement,setting,value
CO/C(O)=C(\C#N)c1nc2c(nc1C#N)C(=O)c1ccccc1-2,IC50,[1],> 100000 nM
same,IC50,[2],> 100000 nM
N#Cc1nc2c(nc1C#N)-c1ccc(Cl)cc1C2=O,IC50,[1],960 nM
same,IC50,[3],400 nM
same,IC50,[2],400 nM
OCCNCc1cc(Br)ccc1OCc1cc(F)c(F)cc1F,IC50,[4],2000 nM
OCCNCc1cc(Br)ccc1OCc1ccccc1,IC50,[5],52.5 µM
same,IC50,[4],59600 nM
Nc1nc2[nH]cnc2c(=S)[nH]1,Kis,[6],24.6 µM
CCc1c(-c2cccc(NC(C)=O)c2)cnc(N)c1-c1cccs1,IC50,[7],> 63.3 µM
CCc1c(-c2ccc(O)cc2)cnc(N)c1-c1cccc(C)c1,IC50,[8],> 63.3 µM
CCc1c(-c2ccc(C(=O)N(C)C)cc2)cnc(N)c1-c1ccc(O)cc1,IC50,[8],75.6 µM
Nc1nc2nc[nH]c2c(=S)[nH]1 [THIOGUANINE],IC50,[9],42 µM
OCCNCc1cc(Br)ccc1OCc1cccc(OC(F)(F)F)c1,IC50,[5],0.88 µM
same,IC50,[4],1100 nM
CC(=O)Nc1cccc(-c2cnc(N)c(-c3ccc(O)cc3)c2C)c1,IC50,[7],42 µM
Sc1ncnc2nc[nH]c12 [MERCAPTOPURINE ANHYDROUS],IC50,[9],> 100 µM
CCc1c(-c2ccc(O)cc2)cnc(N)c1-c1ccc(S(C)(=O)=O)cc1,IC50,[8],> 63.3 µM
CC(=O)c1cc([N+](=O)[O-])c(Sc2c(Cl)cncc2Cl)s1,IC50,[10],2000 nM
